In patent US8232269B2, “Amide compounds useful in therapy” (Pfizer Inc., priority 2008, dated 2012):

Target: T1, Progesterone Receptor (PR) (Homo sapiens, UniProt P06401)
T1 construct: endogenous in cells; host or cells: T47D human breast mammary carcinoma cells
T1 sequence (P06401 1-933): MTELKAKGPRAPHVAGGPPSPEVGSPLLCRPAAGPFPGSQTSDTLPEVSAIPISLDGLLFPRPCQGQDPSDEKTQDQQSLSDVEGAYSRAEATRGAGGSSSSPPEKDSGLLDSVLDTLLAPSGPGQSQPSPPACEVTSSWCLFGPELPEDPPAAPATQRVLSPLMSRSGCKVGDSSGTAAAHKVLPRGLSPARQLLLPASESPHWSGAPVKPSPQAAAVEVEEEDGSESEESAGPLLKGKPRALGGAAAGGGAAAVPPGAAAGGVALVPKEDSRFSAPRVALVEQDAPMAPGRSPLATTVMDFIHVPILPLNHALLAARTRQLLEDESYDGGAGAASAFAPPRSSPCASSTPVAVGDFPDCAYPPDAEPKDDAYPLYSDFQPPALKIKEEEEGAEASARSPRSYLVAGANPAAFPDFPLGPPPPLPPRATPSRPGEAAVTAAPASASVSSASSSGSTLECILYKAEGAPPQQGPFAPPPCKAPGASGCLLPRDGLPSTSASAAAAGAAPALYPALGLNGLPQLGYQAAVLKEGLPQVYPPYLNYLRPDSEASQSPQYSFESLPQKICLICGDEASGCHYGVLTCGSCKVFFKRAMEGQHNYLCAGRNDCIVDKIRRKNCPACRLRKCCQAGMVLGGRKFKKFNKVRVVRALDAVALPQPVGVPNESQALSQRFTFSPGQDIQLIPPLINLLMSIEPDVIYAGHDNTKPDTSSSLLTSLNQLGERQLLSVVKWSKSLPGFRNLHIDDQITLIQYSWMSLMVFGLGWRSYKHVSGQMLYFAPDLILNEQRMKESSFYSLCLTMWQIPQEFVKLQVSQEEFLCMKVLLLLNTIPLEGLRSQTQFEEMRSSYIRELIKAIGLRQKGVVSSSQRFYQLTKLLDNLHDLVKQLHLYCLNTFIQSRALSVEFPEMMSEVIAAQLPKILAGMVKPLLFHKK
Assay: In vitro functional assay for progesterone receptor (PR) antagonists: inhibition of progesterone-induced alkaline phosphatase expression in T47D cells
Assay type: cell-based
Settings: antagonist format, 5 nM progesterone, Ki calculated from IC50 with the Cheng-Prusoff equation
In short: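 Antagonist format: T47D cells (8750/well, phenol red-free DMEM + 5% CS-FCS) given half-log compound dilutions plus 5 nM progesterone (final), incubated overnight (≥16 h) at 37 °C. Alkaline phosphatase read by CSPD chemiluminescence after freeze-thaw lysis; 0.1 μM RU-486 final defines minimum.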

Compound | Ki [nM]
CNC(=O)c1c(C2CC2)c(-c2ccc(C#N)cc2)nn1C(C)C [Example 46, 3-(4-Cyanophenyl)-4-cyclopropyl-1-isopropyl-N-methyl-1H-pyrazole-5-carboxamide] | > 2010
Cc1c(-c2ccc(C#N)cc2)nn(C2CCOC2)c1C(=O)NCC(C)(C)O (racemic) [Example 80, 3-(4-Cyanophenyl)-N-(2-hydroxy-2-methylpropyl)-4-methyl-1-(tetrahydrofuran-3-yl)-1H-pyrazole-5-carboxamide] | 138
Cc1cc(-c2nn(C(C)C)c(C(=O)NCC(C)(C)O)c2C#N)ccc1C#N [Example 126] | 10.2
Cc1c(-c2ccc(C#N)cc2)nn(C2CC2)c1C(=O)NC(C)C [Example 85, 3-(4-Cyanophenyl)-1-cyclopropyl-N-isopropyl-4-methyl-1H-pyrazole-5-carboxamide] | 139
CCc1c(-c2ccc(C#N)cc2)nn(C(C)CC)c1C(=O)NCC(=O)NC (single isomer, unassigned) [Example 109 Ent 2, 1-sec-Butyl-3-(4-cyanophenyl)-4-ethyl-N-[2-(methylamino)-2-oxoethyl]-1H-pyrazole-5-carboxamide] | 190
CCNC(=O)c1c(C)c(-c2ccc(C#N)cc2)nn1C1CCOC1 (single isomer, unassigned) [Example 76 Ent 2, 3-(4-Cyanophenyl)-N-ethyl-4-methyl-1-(tetrahydrofuran-3-yl)-1H-pyrazole-5-carboxamide] | 147
Cc1c(-c2ccc(C#N)cc2)nn(C2CCOC2)c1C(=O)NC[C@H](C)O (single isomer, unassigned) [Example 78 Diast 1] | > 242
CC(Cn1cccn1)NC(=O)c1c(C2CC2)c(-c2ccc(C#N)cc2)nn1C(C)C (racemic) [Example 44, (+/−)-3-(4-Cyanophenyl)-4-cyclopropyl-1-isopropyl-N-[1-methyl-2-(1H-pyrazol-1-yl)ethyl]-1H-pyrazole-5-carboxamide] | 40.8
CC(C)n1nc(-c2ccc(C#N)cc2)c(C2CC2)c1C(=O)NC(C)(C)C [Example 60, N-tert-Butyl-3-(4-cyanophenyl)-4-cyclopropyl-1-isopropyl-1H-pyrazole-5-carboxamide] | 42.1

Other lines, results leading:

Ki [nM] | Compound
7.38 | CC(C)n1nc(-c2ccc(C#N)cc2)c(C2CC2)c1C(=O)NC[C@H]1CCCO1 [Example 53, 3-(4-Cyanophenyl)-4-cyclopropyl-1-isopropyl-N-[(2R)-tetrahydrofuran-2-ylmethyl]-1H-pyrazole-5-carboxamide]
3.78 | CCCNC(=O)c1c(C2CC2)c(-c2ccc(C#N)cc2)nn1C(C)C [Example 20, 3-(4-Cyanophenyl)-4-cyclopropyl-1-isopropyl-N-propyl-1H-pyrazole-5-carboxamide]
17.5 | CC(C)n1nc(-c2ccc(C#N)cc2)c(C2CC2)c1C(=O)NC1CCCOC1 (racemic) [Example 40, (+/−)-3-(4-Cyanophenyl)-4-cyclopropyl-1-isopropyl-N-(tetrahydro-2H-pyran-3-yl)-1H-pyrazole-5-carboxamide]
11.9 | Cc1cc(-c2nn(C(C)C)c(C(=O)NC[C@@H](C)O)c2C#N)ccc1C#N [Example 128]
34.6 | CC(C)n1nc(-c2ccc(C#N)cc2)c(C2CC2)c1C(=O)N[C@H]1C[C@@H](O)C1 [Example 32, 3-(4-Cyanophenyl)-4-cyclopropyl-N-(cis-3-hydroxycyclobutyl)-1-isopropyl-1H-pyrazole-5-carboxamide]
8.28 | CC(C)n1nc(-c2ccc(C#N)cc2)c(C2CC2)c1C(=O)NC1CCS(=O)(=O)C1 (centres unmarked) [Example 125]
14.2 | CCc1c(-c2ccc(C#N)cc2)nn(C(C)CC)c1C(=O)NC (racemic) [Example 105, (+/−)-1-sec-Butyl-3-(4-cyanophenyl)-4-ethyl-N-methyl-1H-pyrazole-5-carboxamide]
30.9 | CC(C)n1nc(-c2ccc(C#N)cc2)c(C2CC2)c1C(=O)NCc1cnn(C)c1 [Example 30, 3-(4-Cyanophenyl)-4-cyclopropyl-1-isopropyl-N-[(1-methyl-1H-pyrazol-4-yl)methyl]-1H-pyrazole-5-carboxamide]
